Measurements from patent US20050100588A1, “Self-adhesive matrix plaster containing an active ingredient and based on polyurethane gels” (Beiersdorf AG, priority 2001, published 2005).

Assay: Active ingredient release of NVA to pig's skin
Assay type: in vitro ADME
Conditions: pig's skin, 2, 4, 6, 8 and 24 hours, FIG. 7
Method: For investigating the release characteristics, specimens on pig's skin are prepared and the release is determined quantitatively after 24 hours.
In order to investigate the release characteristics, samples on pig's skin are prepared and the release is determined quantitatively after 2, 4, 6, 8 and 24 hours. […] From this it is clear that the active ingredient is delivered in a controlled, sustained manner into the skin to develop its activity there.

In the case of `CCCCCCCCC(=O)NCc1ccc(O)c(OC)c1` [NVA, Nonivamide], the “quantity of NVA released in total to epidermis and dermis, course over time” value is reported as “uniform, linear increase”.
